Columns and labels:
rat TAAR1 = rat TAAR1 (Rattus norvegicus (Rat), UniProt Q923Y9); assay: Radioligand binding assay on rat TAAR1; conditions: rat TAAR1, membranes of stably transfected HEK-293 cells; second value of the pair; read-out: Ki (μM) mouse/rat: rat
Description: (§1) For the construction of expression plasmids the coding sequences of human, rat and mouse TAAR 1 were amplified from genomic DNA essentially as described by Lindemann et al.. The Expand High Fidelity PCR System (Roche Diagnostics) was used with 1.5 mM Mg^2+ and purified PCR products were cloned into pCR2.1-TOPO cloning vector (Invitrogen) following the instructions of the manufacturer. PCR products were subcloned into the pIRESneo2 vector (BD Clontech, Palo Alto, Calif.), and expression vectors were sequence verified before introduction in cell lines.
(§2) For the generation of stably transfected cell lines HEK293 cells were transfected with the pIRESneo2 expression plasmids containing the TAAR coding sequences (described above) with Lipofectamine 2000 (Invitrogen) according to the instructions of the manufacturer, and 24 hrs post transfection the culture medium was supplemented with 1 mg/ml G418 (Sigma, Buchs, Switzerland). After a culture period of about 10 d clones were isolated, expanded and tested for responsiveness to trace amines (all compounds purchased from Sigma) with the cAMP Biotrak Enzyme immunoassay (EIA) System (Amersham) following the non-acetylation EIA procedure provided by the manufacturer.
Radioligand Binding Assay on Rat TAAR1
(§3) Membrane Preparation and Radioligand Binding.
(§4) Cells were released from culture flasks using trypsin/EDTA, harvested, washed twice with ice-cold PBS (without Ca^2+ and Mg^2+), pelleted at 1′000 rpm for 5 min at 4° C., frozen and stored at −80° C. Frozen pellets were suspended in 20 ml HEPES-NaOH (20 mM, pH 7.4) containing 10 mM EDTA and homogenized with a Polytron (PT 6000, Kinematica) at 14′000 rpm for 20 s. The homogenate was centrifuged at 48′000×g for 30 min at 4° C. Subsequently, the supernatant was removed and discarded, and the pellet resuspended in 20 ml HEPES-NaOH (20 mM, pH 7.4) containing 0.1 mM EDTA using the Polytron (20 s at 14′000 rpm). This procedure was repeated and the final pellet resuspended in HEPES-NaOH containing 0.1 mM EDTA and homogenized using the Polytron. Typically, aliquots of 2 ml membrane portions were stored at −80° C. With each new membrane batch the dissociation constant (Kd) was determined via a saturation curve. […] Nonspecific binding was defined as the amount of ^3[H]—(S)-4-[(ethyl-phenyl-amino)-methyl]-4,5-dihydro-oxazol-2-ylamine bound in the presence of 10 μM unlabeled ligand. All compounds were tested at a broad range of concentrations (10 pM to 10 μM) in duplicates. […] The 96 deep well plates were incubated for 1 hr at 4° C. Incubations were terminated by rapid filtration through Unifilter-96 plates (Packard Instrument Company) and glass filters GF/C (Perkin Elmer) presoaked for 1 hr in polyethylenimine (0.3%) and washed 3 times with 1 ml of cold binding buffer. After addition of 45 μl of Microscint 40 (PerkinElmer) the Unifilter-96 plate was sealed and after 1 hr the radioactivity counted using a TopCount Microplate Scintillation Counter (Packard Instrument Company).

mouse TAAR1 = mouse TAAR1 (Mus musculus (Mouse), UniProt Q923Y8); assay: Radioligand binding assay on mouse TAAR1; conditions: mouse TAAR1, membranes of stably transfected HEK-293 cells; first value of the pair; read-out: Ki (μM) mouse/rat: mouse
Description: as §1, §2
Radioligand Binding Assay on Mouse TAAR1
as §3
as §4, with “1,000” for “1′000”, “48,000×g” for “48′000×g”

Sequence of rat TAAR1 (Q923Y9 whole entry): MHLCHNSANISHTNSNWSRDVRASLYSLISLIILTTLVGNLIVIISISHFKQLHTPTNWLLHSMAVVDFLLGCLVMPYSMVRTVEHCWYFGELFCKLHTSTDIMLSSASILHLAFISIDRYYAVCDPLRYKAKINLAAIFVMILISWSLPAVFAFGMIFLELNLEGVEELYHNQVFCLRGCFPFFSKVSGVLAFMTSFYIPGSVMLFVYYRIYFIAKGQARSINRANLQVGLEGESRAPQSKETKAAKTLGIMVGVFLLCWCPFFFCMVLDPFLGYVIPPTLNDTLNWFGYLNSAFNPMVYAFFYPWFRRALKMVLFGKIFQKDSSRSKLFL
Sequence of mouse TAAR1 (Q923Y8 whole entry): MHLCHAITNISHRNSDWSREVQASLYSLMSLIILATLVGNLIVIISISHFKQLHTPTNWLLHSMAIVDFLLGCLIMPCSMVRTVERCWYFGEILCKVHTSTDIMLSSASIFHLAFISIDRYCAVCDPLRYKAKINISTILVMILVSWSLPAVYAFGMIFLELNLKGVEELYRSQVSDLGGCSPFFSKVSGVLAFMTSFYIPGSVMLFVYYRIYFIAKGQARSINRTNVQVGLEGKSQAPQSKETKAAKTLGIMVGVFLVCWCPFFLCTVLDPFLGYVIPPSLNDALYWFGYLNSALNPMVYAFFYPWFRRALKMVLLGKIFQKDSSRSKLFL

SMILES: Brc1ccc(Nc2ccc(C3CNCCO3)nc2)cc1 (racemic) [Example 2, (RS)—N-(4-Bromophenyl)-6-morpholin-2-yl-pyridin-3-amine]
- Ki (rat TAAR1): 0.0437 µM
- Ki (mouse TAAR1): 0.0018 µM

SMILES: FC(F)(F)c1nccc(Nc2ccc(C3CNCCO3)nc2)n1 (racemic) [Example 17, (RS)—N-(6-Morpholin-2-yl-3-pyridyl)-2-(trifluoromethyl)pyrimidin-4-amine]
- Ki (rat TAAR1): 0.466 µM
- Ki (mouse TAAR1): 0.0382 µM

SMILES: Fc1ccc(Nc2ccc(C3CNCCO3)nc2)cc1 (racemic) [Example 5, (RS)—N-(4-Fluorophenyl)-6-morpholin-2-yl-pyridin-3-amine]
- Ki (rat TAAR1): 0.372 µM
- Ki (mouse TAAR1): 0.0065 µM

SMILES: O=C(Nc1ccc([C@H]2CNCCO2)nc1)c1ccc(Cl)cc1 [Example 51, 4-Chloro-N-[6-[(2R)-morpholin-2-yl]-3-pyridyl]benzamide]
- Ki (rat TAAR1): 0.212 µM
- Ki (mouse TAAR1): 0.0039 µM

SMILES: CCCc1n[nH]c(C(=O)Nc2ccc([C@@H]3CNCCO3)nc2)c1F [Example 79, 4-Fluoro-N-[6-[(2S)-morpholin-2-yl]-3-pyridyl]-3-propyl-1H-pyrazole-5-carboxamide]
- Ki (rat TAAR1): 0.0568 µM
- Ki (mouse TAAR1): 0.0074 µM

SMILES: Clc1ccc(Nc2ccc([C@H]3CNCCO3)nc2)cc1 [Example 24, N-(4-Chlorophenyl)-6-[(2R)-morpholin-2-yl]pyridin-3-amine]
- Ki (rat TAAR1): 0.182 µM
- Ki (mouse TAAR1): 0.0124 µM

SMILES: O=C(Nc1ccc([C@@H]2CNCCO2)nc1)c1[nH]nc(C2CC2)c1Cl [Example 40, 4-Chloro-3-cyclopropyl-N-[6-[(2S)-morpholin-2-yl]-3-pyridyl]-1H-pyrazole-5-carboxamide]
- Ki (rat TAAR1): 0.0428 µM
- Ki (mouse TAAR1): 0.0089 µM

SMILES: Clc1ccc(Nc2ccc([C@H]3CNCCO3)nc2)nc1 [Example 26, N-(5-Chloro-2-pyridyl)-6-[(2R)-morpholin-2-yl]pyridin-3-amine]
- Ki (rat TAAR1): 0.424 µM
- Ki (mouse TAAR1): 0.0118 µM

SMILES: Clc1ccc(Nc2cnc(C3CNCCO3)nc2)cc1 (racemic) [Example 70, (RS)—N-(4-Chlorophenyl)-2-morpholin-2-yl-pyrimidin-5-amine]
- Ki (rat TAAR1): 1.45 µM
- Ki (mouse TAAR1): 0.0186 µM

SMILES: Brc1ccc(Nc2ccc([C@@H]3CNCCO3)nc2)nc1 [Example 21, N-(5-Bromo-2-pyridyl)-6-[(2S)-morpholin-2-yl]pyridin-3-amine]
- Ki (rat TAAR1): 0.0324 µM
- Ki (mouse TAAR1): 0.002 µM

SMILES: O=C(Nc1cccc(Cl)c1)Nc1cnc(C2CNCCO2)c(Cl)c1 (racemic) [Example 109, (RS)-1-(5-Chloro-6-morpholin-2-yl-3-pyridyl)-3-(3-chlorophenyl)urea]
- Ki (rat TAAR1): 0.019 µM
- Ki (mouse TAAR1): 0.0543 µM

SMILES: FC(F)(F)c1cccc(Nc2ccc([C@@H]3CNCCO3)nc2)n1 [Example 30, N-[6-[(2S)-Morpholin-2-yl]-3-pyridyl]-6-(trifluoromethyl)pyridin-2-amine]
- Ki (rat TAAR1): 0.0208 µM
- Ki (mouse TAAR1): 0.0034 µM

SMILES: O=C(Nc1ccc(F)cc1)Nc1ccc(C2CNCCO2)nc1 (racemic) [Example 9, (RS)-1-(4-Fluorophenyl)-3-(6-morpholin-2-yl-3-pyridyl)urea]
- Ki (rat TAAR1): 0.0106 µM
- Ki (mouse TAAR1): 0.0071 µM

SMILES: CCOc1ccc(C(=O)Nc2ccc(C3CNCCO3)nc2)cc1 (racemic) [Example 13, (RS)-4-Ethoxy-N-(6-morpholin-2-yl-3-pyridyl)benzamide]
- Ki (rat TAAR1): 0.328 µM
- Ki (mouse TAAR1): 0.0124 µM

SMILES: CC(C)Cc1n[nH]c(C(=O)Nc2ccc([C@H]3CNCCO3)nc2)c1F [Example 95, 4-Fluoro-3-isobutyl-N-[6-[(2R)-morpholin-2-yl]-3-pyridyl]-1H-pyrazole-5-carboxamide]
- Ki (rat TAAR1): 0.0534 µM
- Ki (mouse TAAR1): 0.0113 µM

SMILES: O=C(Nc1ccc([C@H]2CNCCO2)nc1)c1ccc(OCC(F)(F)F)nc1 [Example 56, N-[6-[(2R)-Morpholin-2-yl]-3-pyridyl]-6-(2,2,2-trifluoroethoxy)pyridine-3-carboxamide]
- Ki (rat TAAR1): 0.0334 µM
- Ki (mouse TAAR1): 0.0075 µM

SMILES: CCc1n[nH]c(C(=O)Nc2ccc([C@H]3CNCCO3)nc2)c1F [Example 83, 3-Ethyl-4-fluoro-N-[6-[(2R)-morpholin-2-yl]-3-pyridyl]-1H-pyrazole-5-carboxamide]
- Ki (rat TAAR1): 0.757 µM
- Ki (mouse TAAR1): 0.0083 µM

SMILES: Cc1cc(C(=O)Nc2ccc([C@@H]3CNCCO3)nc2)nc(C(F)(F)F)n1 [Example 69, (S)-6-Methyl-N-(6-(morpholin-2-yl)pyridin-3-yl)-2-(trifluoromethyl)pyrimidine-4-carboxamide]
- Ki (rat TAAR1): 0.0512 µM
- Ki (mouse TAAR1): 0.0762 µM

SMILES: FC(F)(F)c1ccc(Nc2cnc(C3CNCCO3)nc2)cc1 (racemic) [Example 71, (RS)-2-Morpholin-2-yl-N-[4-(trifluoromethyl)phenyl]pyrimidin-5-amine]
- Ki (rat TAAR1): 0.195 µM
- Ki (mouse TAAR1): 0.0072 µM

SMILES: O=C(Nc1cccc(Cl)c1)Nc1cnc(C2CNCCO2)c(F)c1 (racemic) [Example 112, (RS)-1-(3-Chlorophenyl)-3-(5-fluoro-6-morpholin-2-yl-3-pyridyl)urea]
- Ki (rat TAAR1): 0.0286 µM
- Ki (mouse TAAR1): 0.0102 µM

SMILES: CCc1ncc(C(=O)Nc2ccc([C@@H]3CNCCO3)nc2)cn1 [Example 37, 2-Ethyl-N-[6-[(2S)-morpholin-2-yl]-3-pyridyl]pyrimidine-5-carboxamide]
- Ki (rat TAAR1): 1.47 µM
- Ki (mouse TAAR1): 0.139 µM

SMILES: Clc1ccc(Nc2cnc(C3CNCCO3)c(Cl)c2)nc1 (racemic) [Example 102, (RS)-5-Chloro-N-(5-chloro-2-pyridyl)-6-morpholin-2-yl-pyridin-3-amine]
- Ki (rat TAAR1): 0.461 µM
- Ki (mouse TAAR1): 0.178 µM

SMILES: CCc1n[nH]c(C(=O)Nc2ccc([C@@H]3CNCCO3)nc2)c1C [Example 67, (S)-3-Ethyl-4-methyl-N-(6-(morpholin-2-yl)pyridin-3-yl)-1H-pyrazole-5-carboxamide]
- Ki (rat TAAR1): 0.27 µM
- Ki (mouse TAAR1): 0.0147 µM

SMILES: CC(C)c1n[nH]c(C(=O)Nc2ccc([C@@H]3CNCCO3)nc2)c1Cl [Example 120, 4-Chloro-3-isopropyl-N-[6-[(2S)-morpholin-2-yl]-3-pyridyl]-1H-pyrazole-5-carboxamide]
- Ki (rat TAAR1): 0.0203 µM
- Ki (mouse TAAR1): 0.0311 µM

SMILES: Cc1cn[nH]c1C(=O)Nc1ccc([C@H]2CNCCO2)nc1 [Example 65, 4-Methyl-N-[6-[(2R)-morpholin-2-yl]-3-pyridyl]-1H-pyrazole-5-carboxamide]
- Ki (rat TAAR1): 4.47 µM
- Ki (mouse TAAR1): 0.344 µM

SMILES: O=C(Nc1cnc(C2CNCCO2)nc1)Nc1cccc(Cl)c1 (racemic) [Example 73, (RS)-1-(3-Chlorophenyl)-3-(2-morpholin-2-ylpyrimidin-5-yl)urea]
- Ki (rat TAAR1): 1.96 µM
- Ki (mouse TAAR1): 0.0059 µM

SMILES: Cc1n[nH]c(C(=O)Nc2ccc([C@H]3CNCCO3)nc2)c1Cl [Example 64, 4-Chloro-3-methyl-N-[6-[(2R)-morpholin-2-yl]-3-pyridyl]-1H-pyrazole-5-carboxamide]
- Ki (rat TAAR1): 1.57 µM
- Ki (mouse TAAR1): 0.018 µM

SMILES: CC(C)c1cc(C(=O)Nc2ccc([C@@H]3CNCCO3)nc2)n(CC(F)(F)F)n1 [Example 92, 5-Isopropyl-N-[6-[(2S)-morpholin-2-yl]-3-pyridyl]-2-(2,2,2-trifluoroethyl)pyrazole-3-carboxamide]
- Ki (rat TAAR1): 0.0597 µM
- Ki (mouse TAAR1): 0.262 µM
